From patent US6352958B1, “Cycloimido-substituted benzofused heterocyclic herbicides” (FMC Corporation, priority 1997, dated 2002)

Key:
Format in all cases: in vivo
[1] = system: soybean (Glycine max var. Winchester); assay: Postemergence herbicidal activity, soybean; conditions: rate of application 0.3 Kg/Ha, rated after 12-17 days
Method: (§1) The benzofused heterocyclic compounds of this invention were tested for pre- and postemergence herbicidal activity using a variety of crops and weeds. The test plants included soybean (Glycine max var. Winchester), field corn (Zea mays var. Pioneer 3732), wheat (Triticum aestivum var. Lew), morningglory (Ipomea lacunosa or Ipomea hederacea), velvetleaf (Abutilon theophrasti), green foxtail (Setaria viridis), Johnsongrass (Sorghum halepense), blackgrass (Aloepecurus myosuroides), common chickweed (Stellaria media), and common cocklebur (Xanthium strumarium L.).
(§2) For preemergence testing, two disposable fiber flats (8 cm×15 cm×25 cm) for each rate of application of each candidate herbicide were filled to an approximate depth of 6.5 cm with steam-sterilized sandy loam soil. The soil was leveled and impressed with a template to provide five evenly spaced furrows 13 cm long and 0.5 cm deep in each flat. Seeds of soybean, wheat, corn, green foxtail, and johnsongrass were planted in the furrows of the first flat, and seeds of velvetleaf, morningglory, common chickweed, cocklebur, and blackgrass were planted in the furrows of the second flat. The five-row template was employed to firmly press the seeds into place. A topping soil of equal portions of sand and sandy loam soil was placed uniformly on top of each flat to a depth of approximately 0.5 cm. Flats for postemergence testing were prepared in the same manner except that they were planted 9-14 days prior to the preemergence flats and were placed in a greenhouse and watered, thus allowing the seeds to germinate and the foliage to develop.
(§3) In both pre- and postemergence tests, a stock solution of the candidate herbicide was prepared by dissolving 0.27 g of the compound in 20 mL of water/acetone (50/50) containing 0.5% v/v sorbitan monolaurate. For an application rate of 3000 g/ha of herbicide a 10 mL portion of the stock solution was diluted with water/acetone (50/50) to 45 mL.
(§4) The preemergence flats were initially subjected to a light water spray. The four flats were placed two by two along a conveyor belt (i.e., the two preemergence followed by the two postemergence flats). The conveyor belt fed under a spray nozzle mounted about ten inches above the post-emergent foliage. The preemergent flats were elevated on the belt so that the soil surface was at the same level below the spray nozzle as the foliage canopy of the postemergent plants. The spray of herbicidal solution was commenced and once stabilized, the flats were passed under the spray at a speed to receive a coverage equivalent of 100 L/ha. At this coverage the application rates are those shown in the above table for the individual herbicidal solutions. The preemergence flats were watered immediately thereafter, placed in the greenhouse and watered regularly at the soil surface. The postemergence flats were immediately placed in the green-house and not watered until 24 hours after treatment with the test solution. Thereafter they were regularly watered at ground level. After 12-17 days the plants were examined and the phytotoxicity data were recorded.
(§5) Phytotoxicity data were taken as percent control. Percent control was determined by a method similar to the 0 to 100 rating system disclosed in “Research Methods in Weed Science,” 2nd ed., B. Truelove, Ed.; Southern Weed Science Society; Auburn University, Auburn, Ala., 1977.

[2] = system: velvetleaf (Abutilon theophrasti); assay: Postemergence herbicidal activity, velvetleaf; conditions: rate of application 0.3 Kg/Ha, rated after 12-17 days
Method: as §1, §2, §3, §4, §5

[3] = system: wheat (Triticum aestivum var. Lew); assay: Postemergence herbicidal activity, wheat; conditions: rate of application 0.3 Kg/Ha, rated after 12-17 days
Method: as §1, §2, §3, §4, §5

[4] = system: field corn (Zea mays var. Pioneer 3732); assay: Preemergence herbicidal activity, corn; conditions: Rate of Application 0.3 Kg/Ha, examined after 12-17 days
Method: as §1, §2, §3, §4, §5

[5] = system: green foxtail (Setaria viridis); assay: Preemergence herbicidal activity, green foxtail; conditions: Rate of Application 0.3 Kg/Ha, examined after 12-17 days
Method: as §1, §2, §3, §4, §5

[6] = system: Johnsongrass (Sorghum halepense); assay: Preemergence herbicidal activity, johnsongrass; conditions: Rate of Application 0.3 Kg/Ha, examined after 12-17 days
Method: as §1, §2, §3, §4, §5

[7] = system: morningglory (Ipomea lacunosa or Ipomea hederacea); assay: Preemergence herbicidal activity, morningglory; conditions: Rate of Application 0.3 Kg/Ha, examined after 12-17 days
Method: as §1, §2, §3, §4, §5

[8] = system: common cocklebur (Xanthium strumarium L.); assay: Postemergence herbicidal activity, cocklebur; conditions: rate of application 0.3 Kg/Ha, rated after 12-17 days
Method: as §1, §2, §3, §4, §5

[9] = system: soybean (Glycine max var. Winchester); assay: Preemergence herbicidal activity, soybean; conditions: Rate of Application 0.3 Kg/Ha, examined after 12-17 days
Method: as §1, §2, §3, §4, §5

[10] = system: field corn (Zea mays var. Pioneer 3732); assay: Postemergence herbicidal activity, corn; conditions: rate of application 0.3 Kg/Ha, rated after 12-17 days
Method: as §1, §2, §3, §4, §5

[11] = system: wheat (Triticum aestivum var. Lew); assay: Preemergence herbicidal activity, wheat; conditions: Rate of Application 0.3 Kg/Ha, examined after 12-17 days
Method: as §1, §2, §3, §4, §5

[12] = system: Johnsongrass (Sorghum halepense); assay: Postemergence herbicidal activity, johnsongrass; conditions: rate of application 0.3 Kg/Ha, rated after 12-17 days
Method: as §1, §2, §3, §4, §5

[13] = system: common chickweed (Stellaria media); assay: Postemergence herbicidal activity, chickweed; conditions: rate of application 0.3 Kg/Ha, rated after 12-17 days
Method: as §1, §2, §3, §4, §5

[14] = system: morningglory (Ipomea lacunosa or Ipomea hederacea); assay: Postemergence herbicidal activity, morningglory; conditions: rate of application 0.3 Kg/Ha, rated after 12-17 days
Method: as §1, §2, §3, §4, §5

[15] = system: green foxtail (Setaria viridis); assay: Postemergence herbicidal activity, green foxtail; conditions: rate of application 0.3 Kg/Ha, rated after 12-17 days
Method: as §1, §2, §3, §4, §5

[16] = system: common chickweed (Stellaria media); assay: Preemergence herbicidal activity, chickweed; conditions: Rate of Application 0.3 Kg/Ha, examined after 12-17 days
Method: as §1, §2, §3, §4, §5

[17] = system: velvetleaf (Abutilon theophrasti); assay: Preemergence herbicidal activity, velvetleaf; conditions: Rate of Application 0.3 Kg/Ha, examined after 12-17 days
Method: as §1, §2, §3, §4, §5

[18] = system: common cocklebur (Xanthium strumarium L.); assay: Preemergence herbicidal activity, cocklebur; conditions: Rate of Application 0.3 Kg/Ha, examined after 12-17 days
Method: as §1, §2, §3, §4, §5

[19] = system: blackgrass (Aloepecurus myosuroides); assay: Preemergence herbicidal activity, blackgrass; conditions: Alopecurus myosuroides, pre-emergence, Rate of Application 0.3 Kg/Ha, examined after 12-17 days, read-out: PREEMERGENCE HERBICIDAL ACTIVITY (% CONTROL) ALOMY
Method: as §1, §2, §3, §4, §5

SMILES	Postemergence herbicidal activity (% control) SOY [1]	Postemergence herbicidal activity (% control) ABUTH [2]	Postemergence herbicidal activity (% control) WHT [3]	PREEMERGENCE HERBICIDAL ACTIVITY (% CONTROL) CRN [4]	PREEMERGENCE HERBICIDAL ACTIVITY (% CONTROL) SETVI [5]	PREEMERGENCE HERBICIDAL ACTIVITY (% CONTROL) SORHA [6]	PREEMERGENCE HERBICIDAL ACTIVITY (% CONTROL) IPOSS [7]	Postemergence herbicidal activity (% control) XANPE [8]	PREEMERGENCE HERBICIDAL ACTIVITY (% CONTROL) SOY [9]	Postemergence herbicidal activity (% control) CRN [10]	PREEMERGENCE HERBICIDAL ACTIVITY (% CONTROL) WHT [11]	Postemergence herbicidal activity (% control) SORHA [12]	Postemergence herbicidal activity (% control) STEME [13]	Postemergence herbicidal activity (% control) IPOSS [14]	Postemergence herbicidal activity (% control) SETVI [15]	PREEMERGENCE HERBICIDAL ACTIVITY (% CONTROL) STEME [16]	PREEMERGENCE HERBICIDAL ACTIVITY (% CONTROL) ABUTH [17]	PREEMERGENCE HERBICIDAL ACTIVITY (% CONTROL) XANPE [18]	other results
CC(=O)OC(C)(C)c1cc2c(Cl)cc(F)c(-n3c(=O)cc(C(F)(F)F)n(C)c3=O)c2o1 [Compound 253]	95%	100%	100%	100%	100%	100%	100%	100%	100%	100%	95%	100%	100%	100%	100%	100%	100%	–	–
CCCCc1cc2c(Cl)ccc(-n3c(=O)cc(C(F)(F)F)n(C)c3=O)c2o1 [Compound 225]	60%	100%	30%	30%	100%	60%	50%	70%	40%	60%	20%	60%	–	75%	90%	70%	90%	50%	–
CC(=O)OC(C)(C)c1nc2c(-n3c(=O)cc(C(F)(F)F)n(C)c3=O)c(F)cc(Br)c2o1 [Compound 104, 1-METHYL-6-TRIFLUOROMETHYL-3-[7-BROMO-5-FLUORO-2-(2-METHYLCARBONYLOXYPROP-2-YL)BENZOXAZOL-4-YL]-2,4(1 H,3H)-PYRIMIDINEDIONE]	–	–	–	–	–	–	–	–	–	–	–	–	–	–	–	–	–	–	inhibition at 300 g/ha ([1]; Glycine max, post-emergence, read-out: Postemergence herbicidal activity (% control) SOY): 100%; inhibition at 300 g/ha ([2]; Abutilon theophrasti, post-emergence, read-out: Postemergence herbicidal activity (% control) ABUTH): 100%; inhibition at 300 g/ha ([3]; Triticum aestivum, post-emergence, read-out: Postemergence herbicidal activity (% control) WHT): 100%; inhibition at 300 g/ha ([4]; Zea mays, pre-emergence, read-out: PREEMERGENCE HERBICIDAL ACTIVITY (% CONTROL) CRN): 100%; inhibition at 300 g/ha [19]: 100%; inhibition at 300 g/ha ([18]; Xanthium strumarium, pre-emergence, read-out: PREEMERGENCE HERBICIDAL ACTIVITY (% CONTROL) XANPE): 100%; inhibition at 300 g/ha ([5]; Setaria viridis, pre-emergence, read-out: PREEMERGENCE HERBICIDAL ACTIVITY (% CONTROL) SETVI): 100%; inhibition at 300 g/ha ([6]; Sorghum halepense, pre-emergence, read-out: PREEMERGENCE HERBICIDAL ACTIVITY (% CONTROL) SORHA): 100%; inhibition at 300 g/ha ([7]; Ipomoea, pre-emergence, read-out: PREEMERGENCE HERBICIDAL ACTIVITY (% CONTROL) IPOSS): 100%; inhibition at 300 g/ha ([9]; Glycine max, pre-emergence, read-out: PREEMERGENCE HERBICIDAL ACTIVITY (% CONTROL) SOY): 100%; inhibition at 300 g/ha ([10]; Zea mays, post-emergence, read-out: Postemergence herbicidal activity (% control) CRN): 100%; inhibition at 300 g/ha ([11]; Triticum aestivum, pre-emergence, read-out: PREEMERGENCE HERBICIDAL ACTIVITY (% CONTROL) WHT): 100%; inhibition at 300 g/ha ([12]; Sorghum halepense, post-emergence, read-out: Postemergence herbicidal activity (% control) SORHA): 100%; inhibition at 300 g/ha ([14]; Ipomoea, post-emergence, read-out: Postemergence herbicidal activity (% control) IPOSS): 100%; inhibition at 300 g/ha ([15]; Setaria viridis, post-emergence, read-out: Postemergence herbicidal activity (% control) SETVI): 100%; inhibition at 300 g/ha ([17]; Abutilon theophrasti, pre-emergence, read-out: PREEMERGENCE HERBICIDAL ACTIVITY (% CONTROL) ABUTH): 100%
Cn1c(C(F)(F)F)cc(=O)n(-c2c(F)cc(Cl)c3cc(CCO)oc23)c1=O [Compound 239]	95%	100%	60%	90%	100%	90%	100%	100%	100%	80%	70%	80%	100%	100%	100%	100%	100%	–	–
CCOC(=O)c1cc2c(Cl)ccc(-n3c(=O)cc(C(F)(F)F)n(C)c3=O)c2o1 [Compound 268]	70%	50%	40%	50%	60%	60%	95%	–	30%	60%	30%	40%	20%	90%	70%	20%	100%	0%	–
